Results published in patent publication US11066414B2, “Cot modulators and methods of use thereof” (Gilead Sciences, Inc., priority 2015, dated 2021).
Where two headings read alike, the source gives them in different places.

Tests used:
TNFα = experiment: Cot Monocyte TNFα Cell Based Assay
Human Cot = Human Cot (Homo sapiens (Human), UniProt P41279); experiment: High Throughput Cot Biochemical Assay
[1] = Homo sapiens, Monocyte, read-out: EC50 TNF, LPS-stimulated human monocytes, TNFα
[2] = IC50 HTRF, Cot HTRF (TR-FRET) biochemical assay
[3] = read-out: EC50 TNF, LPS-stimulated human monocytes, TNFα
[4] = read-out: IC50 HTRF, Cot HTRF (TR-FRET) biochemical assay
[5] = Homo sapiens, Monocyte, read-out: EC50 TNF, LPS-stimulated human monocytes, TNFα TR-FRET
[6] = IC50 HTRF, Cot HTRF (TR-FRET KinEASE) biochemical assay, 400 μM ATP

Chain of Human Cot (P41279 30-397): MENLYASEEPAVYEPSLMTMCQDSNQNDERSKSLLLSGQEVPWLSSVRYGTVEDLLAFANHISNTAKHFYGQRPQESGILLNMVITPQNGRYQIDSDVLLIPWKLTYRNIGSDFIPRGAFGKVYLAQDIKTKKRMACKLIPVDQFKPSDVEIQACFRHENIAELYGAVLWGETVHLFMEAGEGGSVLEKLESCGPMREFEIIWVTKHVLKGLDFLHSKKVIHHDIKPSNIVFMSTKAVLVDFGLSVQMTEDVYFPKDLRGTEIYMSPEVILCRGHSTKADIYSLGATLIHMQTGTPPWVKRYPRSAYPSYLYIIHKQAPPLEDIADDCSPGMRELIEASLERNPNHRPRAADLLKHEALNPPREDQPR

Compound	EC50 (TNFα; [1])	IC50 (Human Cot; [2])	other results
Cc1nc(F)ccc1[C@H](Nc1cc(Cl)c2ncc(C#N)c(NCC(C)(C)C)c2c1)c1cn(C2(C(N)=O)CC2)nn1 [Example 477, (S)-1-(4-(((8-chloro-3-cyano-4-(neopentylamino)quinolin-6-yl)amino)(6-fluoro-2-methylpyridin-3-yl)methyl)-1H-1,2,3-triazol-1-yl)cyclopropane-1-carboxamide]	185 nM	2 nM	
Cc1ncccc1[C@H](Nc1cc(Cl)c2ncc(C#N)c(Nc3cccc(Cl)c3)c2c1)c1cn(C(C)C)nn1 [Example 225, (S)-8-chloro-4-((3-chlorophenyl)amino)-6-(((1-isopropyl-1H-1,2,3-triazol-4-yl)(2-methylpyridin-3-yl)methyl)amino)quinoline-3-carbonitrile]	1490 nM	10 nM	
[2H][C@@](Nc1cc(Cl)c2ncc(C#N)c(NCC(C)(C)C)c2c1)(c1cn(C2CC2)nn1)c1cccnc1F [Example 104, (S)-8-chloro-6-(((1-cyclopropyl-1H-1,2,3-triazol-4-yl)(2-fluoropyridin-3-yl)methyl-d)amino)-4-(neopentyl-amino)quinoline-3-carbonitrile]	99 nM	1 nM	
Cc1nc(Cl)ccc1[C@H](Nc1cc(Cl)c2ncc(C#N)c(NCC(C)(C)C)c2c1)c1cn(C2(C(F)F)CC2)nn1 [Example 718, (S)-8-chloro-6-(((6-chloro-2-methylpyridin-3-yl)(1-(1-(difluoromethyl)cyclopropyl)-1H-1,2,3-triazol-4-yl)methyl)amino)-4-(neopentylamino)quinoline-3-carbonitrile]	112 nM	9 nM	
Cc1ncsc1[C@H](Nc1cc(Cl)c2ncc(C#N)c(N[C@H](C)c3ccccc3)c2c1)c1c[nH]nn1 [Example 243, 8-chloro-6-(((R)-(4-methylthiazol-5-yl)(1H-1,2,3-triazol-4-yl)methyl)amino)-4-(((R)-1-phenylethyl)amino)quinoline-3-carbonitrile]	9490 nM	41 nM	
CC[C@@H](Nc1c(C#N)cnc2c(Cl)cc(N[C@@H](c3cccnc3)c3cn(C4CC4)nn3)cc12)c1ccccc1 [Example 191, 8-chloro-6-(((S)-(1-cyclopropyl-1H-1,2,3-triazol-4-yl)(pyridin-3-yl)methyl)amino)-4-(((R)-1-phenylpropyl)amino)quinoline-3-carbonitrile]	104 nM	2 nM	
Cn1ncc2cccc([C@H](Nc3cc(C#N)c4ncc(C#N)c(NCC(C)(C)C)c4c3)c3cn(C4(C(F)F)CC4)nn3)c21 [Example 605]			EC50 (TNFα; [3]): 30 nM; IC50 (Human Cot; [4]): 3 nM
Cc1ncsc1[C@H](Nc1cc(C#N)c2ncc(C#N)c(NCC(C)(C)C)c2c1)c1cn(C2(C(F)(F)F)CC2)nn1 [Example 904, (R)-6-(((4-methylthiazol-5-yl)(1-(1-(trifluoromethyl)cyclopropyl)-1H-1,2,3-triazol-4-yl)methyl)amino)-4-(neopentylamino)quinoline-3,8-dicarbonitrile]			EC50 (TNFα; [5]): 78 nM; IC50 (Human Cot; [6]): 5 nM
Cc1nc(F)ccc1[C@H](Nc1cc(Cl)c2ncc(C#N)c(NCC(C)(C)C)c2c1)c1nnn(C2CC2)c1I [Example 643, (S)-8-chloro-6-(((1-cyclopropyl-S-iodo-1H-1,2,3-triazol-4-yl)(6-lluoro-2-methylpyridin-3-yl)methyl)amino)-4-(neopentylamino)quinoline-3-carbonitrile]			EC50 (TNFα; [3]): 1000 nM; IC50 (Human Cot; [4]): 5 nM
Cn1ccc2c([C@H](Nc3cc(C#N)c4ncc(C#N)c(NCC(C)(C)C(F)(F)F)c4c3)c3cn(C4(C5CC5)CC4)nn3)cccc2c1=O [Example 882, (S)-6-(((1-([1,1′-bi(cyclopropan)]-1-yl)-1H-1,2,3-triazol-4-yl)(2-methyl-1-oxo-1,2-dihydroisoquinolin-5-yl)methyl)amino)-4-((3,3,3-trifluoro-2,2-dimethylpropyl)amino)quinoline-3,8-dicarbonitrile]			EC50 (TNFα; [5]): 18 nM; IC50 (Human Cot; [6]): 2 nM
CC[C@@H](Nc1c(C#N)cnc2c(Cl)cc(N[C@@H](c3cccnc3)c3cn(C4CCN(C(C)(C)C)CC4)nn3)cc12)c1ccccc1 [Example 258]			EC50 (TNFα; [3]): 33 nM; IC50 (Human Cot; [4]): 2 nM
CC(C)(C)CNc1c(C#N)cnc2c(C#N)cc(N[C@H](c3cn(C4(C(N)=O)CC4)nn3)c3cccc4cnccc34)cc12 [Example 586, (S)-1-(4-(((3,8-dicyano-4-(neopentylamino)-quinolin-6-yl)atnino)(isoquinolin-5-yl)methyl)-1H-1,2,3-triazol-yl)cyclopropane-1-carboxamide]			EC50 (TNFα; [3]): 1000 nM; IC50 (Human Cot; [4]): 2 nM
Cn1nccc1[C@H](Nc1cc(Cl)c2ncc(C#N)c(Nc3cnc(F)c(F)c3)c2c1)c1c[nH]nn1 [Example 165, (S)-8-chloro-4-((5,6-difluoropyridin-3-yl)amino)-6-(((1-methyl-1H-pyrazol-5-yl)(1H-1,2,3-triazol-4-yl)methyl)amino)quinoline-3-carbonitrile]	2370 nM	9 nM	
CN1Cc2c(cccc2[C@H](Nc2cc(Cl)c3ncc(C#N)c(NCC(C)(C)C)c3c2)c2cn(C3(C(F)F)CC3)nn2)C1=O [Example 737, (S)-8-chloro-6-(((1-(1-(difluoromethyl)cyclopropyl)-1H-1,2,3-triazol-4-yl)(2-methyl-1-oxoisoindolin-4-yl)methyl)amino)-4-(neopentylamino)quinoline-3-carbonitrile]	91 nM	3 nM	
CC(=O)c1cc(N[C@H](c2cn(C3(C(F)(F)F)CC3)nn2)c2cccc3ncsc23)cc2c(NCC(C)(C)C)c(C#N)cnc12 [Example 453, (S)-8-acetyl-6-((benzo[d]thiazol-7-yl(1-(1-(trifluoromethyl)cyclopropyl)-1H-1,2,3-triazol-4-yl)methyl)amino)-4-(neopentylamino)quinoline-3-carbonitrile]	184 nM	9 nM	
Cc1nc(F)ccc1[C@H](Nc1cc(Cl)c2ncc(C#N)c(NC3CCCCC3)c2c1)c1cn(C2(C(F)(F)F)CC2)nn1 [Example 588, (S)-8-chloro-4-(cyclohexylamino)-6-(((6-fluoro-2-methylpyridin-3-yl)(1-(1-(trifluoromethyl)cyclopropyl)-1H-1,2,3-triazol-4-yl)methyl)amino)quinoline-3-carbonitrile]	629 nM	55 nM	
N#Cc1cnc2c(Cl)cc(N[C@@H](c3cccnc3)c3c[nH]nn3)cc2c1N[C@H](CCO)c1ccccc1 [Example 179, 8-chloro-4-(((R)-3-hydroxy-1-phenylpropyl)amino)-6-(((S)-pyridin-3-yl(1H-1,2,3-triazol-4-yl)methyl)amino)quinoline-3-carbonitrile]	> 10000 nM	265 nM	
CC(C)(C)CNc1c(C#N)cnc2c(Cl)cc(N[C@H](c3cn(C4(C(F)(F)F)CC4)nn3)c3cccc4cnccc34)cc12 [Example 462, (S)-8-chloro-6-((isoquinolin-5-yl(1-(1-(trifluoromethyl)cyclopropyl)-1H-1,2,3-triazol-4-yl)methyl)amino)-4-(neopentylamino)quinoline-3-carbonitrile]	8770 nM	162 nM	
CC(C)(CNc1c(C#N)cnc2c(Cl)cc(N[C@H](c3cn(C4(C(F)F)CC4)nn3)c3ccc(F)c4ncccc34)cc12)C(F)(F)F [Example 918, (S)-8-chloro-6-(((1-(1-(difluoromethyl)cyclopropyl)-1H-1,2,3-triazol-4-yl)(8-fluoroquinolin-5-yl)methyl)amino)-4-((3,3,3-trifluoro-2,2-dimethylpropyl)amino)quinoline-3-carbonitrile]			EC50 (TNFα; [5]): 42 nM; IC50 (Human Cot; [6]): 3 nM
Cc1nc(F)ccc1[C@H](Nc1cc(Cl)c2ncc(C#N)c(NCC(C)(C)S(C)(=O)=O)c2c1)c1cn(C2(C(F)(F)F)CC2)nn1 [Example 722, (S)-8-chloro-6-(((6-fluoro-2-methylpyridin-3-yl)(1-(1-(trifluoromethyl)-cyclopropyl)-1H-1,2,3-triazol-4-yl)methyl)amino) -4-((2-methyl-2-(methylsulfonyl)propyl)amino)-quinoline-3-carbonitrile]	403 nM	43 nM	
Cc1nc(F)ccc1[C@H](Nc1cc(Cl)c2ncc(C#N)c(NCC(C)(C)C)c2c1)c1cn(CC2(C(F)F)CC2)nn1 [Example 752, (S)-8-chloro-6-(((1-((1-(difluoromethyl)cyclopropyl)-methyl)-1H-1,2,3-triazol-4-yl)(6-fluoro-2-methylpyridin-3-yl)methyl)amino)-4-(neopentylamino)quinoline-3-carbonitrile]	57 nM	5 nM	
Cc1ccc2c([C@H](Nc3cc(C#N)c4ncc(C#N)c(NCC(C)(C)C)c4c3)c3cn(C45CC(C4)C5)nn3)cccc2n1 [Example 900, (S)-6-(((1-(bicyclo[1.1.1]pentan-1-yl)-1H-1,2,3-triazol-4-yl)(2-methylquinolin-5-yl)methyl)amino)-4-(neopentylamino)quinoline-3,8-dicarbonitrile]			EC50 (TNFα; [5]): 30 nM; IC50 (Human Cot; [6]): 3 nM
CC[C@@H](Nc1c(C#N)cnc2c(Cl)cc(N[C@H](c3cn(C4(C(F)F)CC4)nn3)c3ccc(F)nc3C)cc12)c1ccccc1 [Example 723, 8-chloro-6-(((S)-(1-(1-(difluoromethyl)cyclopropyl)-1H-1,2,3-triazol-4-yl)(6-fluoro-2-methylpyridin-3-yl)methyl)amino)-4-(((R)-1-phenyl-propyl)amino)quinoline-3-carbonitrile]	84 nM	4 nM	
N#CCCC(Nc1c(C#N)cnc2c(Cl)cc(N[C@H](c3cn(C4CC4)nn3)c3csc4c3CCN(C3COC3)C4)cc12)c1ccccc1 (stereo partly drawn) [Example 90, 8-chloro-4-((3-cyano-1-phenyl-propyl)amino)-6-(((S)-(1-cyclopropyl-1H-1,2,3-triazol-4-yl)(6-(oxetan-3-yl)-4,5,6,7-tetrahydrothieno[2,3-c]pyridin-3-yl)methyl)amino)quinoline-3-carbonitrile]	18 nM	1 nM	
